How the values were obtained:
[1] = Encapsulation efficiency of cargo in PEG-EBP polymer vesicles; conditions: cGAMP within PEG-EBP vesicles; high performance liquid chromatography
Description: Encapsulation efficiency is defined as the percentage of cargo associated with the vesicle after cargo loading and separation of vesicles from unencapsulated cargo. N=number of experiments performed for a specific cargo type.
For formulation of polymeric vesicles, 5 mg of the polymer is mixed with 4 μL of ethanol. Upon equilibration, 4 μL of cGAMP solution (0-50 mg/mL in water) is added to the polymer/ethanol gel. […] Upon formation of vesicles, the colloid is diluted into water and sonicated further to generate the PEG-EBP encapsulated cGAMP colloid.
Solvent composition and stepwise addition amounts were chosen to maximize the vesicle yield of the formulation process while maximizing encapsulant concentration during vesicle self-assembly. […] Particles were crosslinked post assembly via addition of 0.5 molar equivalents of DTT relative to pyidyl disulfide moieties comprising the PEG-EBP colloid. Nanoparticles were readily separated from free cGAMP and crosslinking byproducts via centrifugal ultrafiltration using a 10 kDa cutoff.
Pyridyl disulfide (PDS) moieties were exploited for post-assembly in situ crosslinking of the vesicle membrane via partial reduction of disulfide bonds with DTT.

TLR-2 = biological target: T1, TLR-2 (Mus musculus, UniProt Q9EPQ1+Q9QUN7); assay: RAW264.7 NF-κB reporter cell assay; type: cell-based; conditions: incorporated into the PEG-EBP vesicle membrane, versus free Pam3CSK4
T1 construct: endogenous in cells; host or cells: RAW264.7 NF-kB reporter cells
Text: PEG-EBP polymer vesicles were also shown to serve as a carrier for agonists of pattern recognition receptors (PRRs) that reside on the cell surface. […] The reduced activity of Pam3CSK4 incorporated into vesicles is thought to be primarily related to the ˜50% of Pam3CSK4 molecules that are incorporated into the inner leaflet of the vesicle membrane, and therefore are not accessible for binding to cell surface TLR-2 molecules.

T1 sequence (Q9QUN7 25-784): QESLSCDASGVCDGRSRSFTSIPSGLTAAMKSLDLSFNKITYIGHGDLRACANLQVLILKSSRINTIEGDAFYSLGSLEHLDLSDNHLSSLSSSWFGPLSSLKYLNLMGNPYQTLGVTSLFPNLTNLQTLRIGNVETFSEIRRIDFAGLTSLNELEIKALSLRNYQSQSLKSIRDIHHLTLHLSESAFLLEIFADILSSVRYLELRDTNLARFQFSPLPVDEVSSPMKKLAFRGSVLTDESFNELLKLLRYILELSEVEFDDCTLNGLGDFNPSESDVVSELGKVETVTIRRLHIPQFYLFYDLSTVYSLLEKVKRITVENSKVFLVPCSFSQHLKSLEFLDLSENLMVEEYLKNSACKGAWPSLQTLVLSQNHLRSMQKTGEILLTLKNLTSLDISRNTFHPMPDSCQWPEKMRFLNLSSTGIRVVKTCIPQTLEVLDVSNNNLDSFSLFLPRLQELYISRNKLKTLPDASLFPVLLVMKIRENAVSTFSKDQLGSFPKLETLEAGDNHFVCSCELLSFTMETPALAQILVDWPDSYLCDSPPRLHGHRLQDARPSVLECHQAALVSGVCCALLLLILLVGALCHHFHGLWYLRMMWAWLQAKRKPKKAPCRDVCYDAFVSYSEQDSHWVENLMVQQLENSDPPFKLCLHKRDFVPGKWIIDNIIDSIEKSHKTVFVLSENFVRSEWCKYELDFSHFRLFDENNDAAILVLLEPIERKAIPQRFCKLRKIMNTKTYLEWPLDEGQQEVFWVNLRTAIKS
T1 sequence (Q9EPQ1 25-795 limits assumed): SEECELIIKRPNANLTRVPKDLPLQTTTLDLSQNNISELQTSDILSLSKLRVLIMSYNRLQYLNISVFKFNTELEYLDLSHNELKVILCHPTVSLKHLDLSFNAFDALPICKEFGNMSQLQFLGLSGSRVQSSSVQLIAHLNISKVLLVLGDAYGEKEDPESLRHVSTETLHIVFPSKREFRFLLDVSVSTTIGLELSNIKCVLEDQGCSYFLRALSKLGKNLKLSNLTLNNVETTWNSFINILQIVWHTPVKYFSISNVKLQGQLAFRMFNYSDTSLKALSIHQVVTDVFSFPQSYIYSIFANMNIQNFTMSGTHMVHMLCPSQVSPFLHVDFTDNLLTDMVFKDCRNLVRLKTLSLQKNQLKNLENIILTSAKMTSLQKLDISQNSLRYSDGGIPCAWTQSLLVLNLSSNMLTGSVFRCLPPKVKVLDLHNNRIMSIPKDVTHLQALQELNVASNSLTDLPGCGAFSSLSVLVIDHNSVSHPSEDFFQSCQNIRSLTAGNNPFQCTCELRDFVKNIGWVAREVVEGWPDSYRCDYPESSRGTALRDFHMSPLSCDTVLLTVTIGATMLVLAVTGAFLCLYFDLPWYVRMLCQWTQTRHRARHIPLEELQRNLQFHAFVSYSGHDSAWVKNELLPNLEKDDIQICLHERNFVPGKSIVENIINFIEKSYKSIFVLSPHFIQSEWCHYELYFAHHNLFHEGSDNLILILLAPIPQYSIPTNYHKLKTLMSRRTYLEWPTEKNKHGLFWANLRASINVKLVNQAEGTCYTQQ

Row | immunostimulatory activity (TLR-2) | Compound | encapsulation efficiency [1] [%]
1 |  | Nc1nc2c(ncn2[C@@H]2O[C@@H]3COP(=O)(O)O[C@H]4[C@@H](O)[C@H](n5cnc6c(N)ncnc65)O[C@@H]4COP(=O)(O)O[C@@H]2[C@@H]3O)c(=O)[nH]1 [cGAMP, cyclic guanosine monophosphate-adenosine monophosphate] | 38±3
2 | partially retained | Pam3CSK4 | 

— patent publication US10696985B1, “Reversibly crosslinked endosomolytic polymer vesicles for cytosolic drug delivery” (Vanderbilt University, priority 2016, dated 2020)
